pEC50: −log10 of the molar value.
Assays:
[1] = test system: Alport syndrome model mice; assay: in vivo drug efficacy in Alport syndrome model mice; parameters: species or system COL4A5 homozygote knockout mice; settings: 16 weeks after the start of administration
Method: The in vivo drug efficacy of the present compound on Alport syndrome was evaluated using COL4A5 (causative gene of Alport syndrome) knockout mice.
Male wild-type mice and female COL4A5 hetero knockout mice were naturally crossed to obtain offspring. Genotypes of the offspring were confirmed and male COL4A5 homozygote knockout mice were obtained.
The obtained animals were fed ad libitum with CE-2 (CLEA Japan), and watered ad libitum.
The mice were divided into groups using a statistical analysis system EXSUS10.0 so that the body weight and the urine albumin/urine creatinine value at the time of 6 weeks of age were almost uniform in each group.
The test substance and water for injection (Otsuka Pharmaceutical) as a vehicle were orally administered at 10 mL/kg once a day for 17 weeks.
The Control-3 group was orally administered water for injection at 10 mL/kg once a day for 17 weeks. In the Control-4 group, water for injection and an administration solution of irbesartan which is a renin angiotensin system inhibitor were mixed in equal amounts at 5 mL/kg each, and orally administered once a day for 17 weeks.
The administration dose is described in Table 11.
Blood collection was performed by cutting the tail vein of the mice a little with a razor and using a hematocrit capillary. Blood was centrifuged to obtain plasma. Urine was collected for about 16 hours in a metabolic cage for mouse under conditions in which a solid feed and water can be freely taken. The obtained urine sample was centrifuged, and the supernatant was subjected to measurement. Urine albumin (U-ALB) and urine creatinine (U-CRE) concentrations were measured by an automatic analyzer Hitachi 7180 (Hitachi High-Tech), and the creatinine concentration in plasma was measured using LabAssay Creatinine (Fujifilm Wako Shibayagi).

[2] = molecular target: T1, EP1 (Homo sapiens, UniProt P34995); assay: agonist activity on human EP1 receptor (intracellular calcium concentration, EP1-CHO cells); assay type: cell-based
T1 construct: expressed in transfected cells; host or cells: CHO (EP1-CHO)
T1 sequence (P34995 1-402): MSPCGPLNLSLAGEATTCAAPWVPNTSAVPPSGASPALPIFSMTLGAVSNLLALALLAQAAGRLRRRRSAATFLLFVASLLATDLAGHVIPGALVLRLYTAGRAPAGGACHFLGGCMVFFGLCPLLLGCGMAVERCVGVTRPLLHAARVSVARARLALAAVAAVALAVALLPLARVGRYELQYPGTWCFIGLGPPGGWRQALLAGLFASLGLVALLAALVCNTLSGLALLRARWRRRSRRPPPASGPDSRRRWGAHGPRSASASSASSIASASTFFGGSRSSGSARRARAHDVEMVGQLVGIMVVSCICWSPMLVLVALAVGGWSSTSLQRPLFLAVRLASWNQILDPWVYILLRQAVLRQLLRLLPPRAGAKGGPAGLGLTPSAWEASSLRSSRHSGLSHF
Method in brief: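 Calcium 6 dye loaded 1 h at room temperature in HBSS with 1% human serum albumin, 2 µmol/L indomethacin, 2.5 mmol/L probenecid, pH 7.4; agonists then added at various concentrations. Intracellular calcium read by fluorescence (ex 480/em 540 nm) in CHO cells expressing human EP1 or Chem1 cells expressing human EP3.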

Structure (SMILES)	Plasma creatinine mean ([1]; 1 mg/kg orally once a day for 17 weeks, concomitant drug Irbesartan (50 mg/kg)) [mg/dL]	Plasma creatinine mean ([1]; 3 mg/kg orally once a day for 17 weeks, concomitant drug cell empty) [mg/dL]	pEC50 [2]	Plasma creatinine mean ([1]; 0.1 mg/kg orally once a day for 17 weeks, single agent) [mg/dL]	Plasma creatinine mean ([1]; 0.3 mg/kg orally once a day for 17 weeks, single agent) [mg/dL]
Cc1c(C(=O)O)ccc2c1O[C@H]1C[C@@H](O)[C@H](/C=C/C[C@@](C)(O)CCCC(F)(F)F)[C@H]1CC2 [Example 12, (1R,2R,3aS,10aR)-2-hydroxy-5-methyl-1-[(1E,4S)-8,8,8-trifluoro-4-hydroxy-4-methyl-1-octen-1-yl]-2,3,3a,9,10,10a-hexahydro-1H-benzo[b]cyclopenta[f]oxepine-6-carboxylic acid]	0.709	0.722	5.46		
CC(C)(c1ccccc1)C(O)/C=C/[C@H]1CC[C@@H]2Oc3c(ccc(C(=O)O)c3F)CC[C@@H]21 (stereo partly drawn) [Example 25-7, (1R,3aS,10aR)-5-fluoro-1-[(1E,3ξ)-3-hydroxy-4-methyl-4-phenyl-1-penten-1-yl]-2,3,3a,9,10,10a-hexahydro-1H-benzo[b]cyclopenta[f]oxepine-6-carboxylic acid]			< 5.00	0.758	0.628

From patent EP4682141A1, “TRICYCLIC COMPOUND” (ONO Pharmaceutical Co., Ltd., priority 2023, dated 2024)
